In patent publication US20230017045A1, “PYRIDINE AND PYRIMIDINE CARBOXYLATE HERBICIDES AND METHODS OF USE THEREOF” (Dow AgroSciences LLC, priority 2017, published 2023):

system: test plant species; test: Post-emergent herbicidal activity test (greenhouse, foliar spray, visual growth reduction); format: in vivo; settings: post-emergence, 336 h, ALOMY: blackgrass (Alopecurus myosuroides), 140 g ai/ha, 14 days after application, read-out: Visual Growth Reduction (%) 14 Days After Application, ALOMY
Summary of the method: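 Seedlings were raised 7-21 d in a greenhouse under a 15 h photoperiod until the first or second true leaf. Each compound, dissolved in acetone:DMSO 97:3 and diluted into a surfactant-containing spray mixture, was then applied at 187 L/ha. Plants were subirrigated, and growth reduction was scored visually at 14 d.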

Row | Compound | pest or weed control at 140 g/ha [%]
1 | COC(=O)c1nc(-c2cc3c(cc2F)OC(F)(F)O3)c(F)cc1Cl [F173, Methyl 3-chloro-5-fluoro-6-(2,2,6-trifluorobenzo[d] [1,3]dioxol-5-yl)picolinate] | 60 to 74
2 | COC(=O)c1nc(-c2ccc(SC(F)(F)F)cc2)c(F)cc1Cl [F91, Methyl 3-chloro-5-fluoro-6-(4-((trifluoromethyl)thio)phenyl) picolinate] | 0 to 29

same assay, conditions: post-emergence, 336 h, AMARE: redroot pigweed (Amaranthus retroflexus), 140 g ai/ha, 14 days after application, read-out: Visual Growth Reduction (%) 14 Days After Application, AMARE

Row | Compound | pest or weed control at 140 g/ha [%]
3 | COC(=O)c1nc(-c2cc3c(cc2F)OC(F)(F)O3)c(F)cc1Cl [F173, Methyl 3-chloro-5-fluoro-6-(2,2,6-trifluorobenzo[d] [1,3]dioxol-5-yl)picolinate] | 95 to 100
4 | COC(=O)c1nc(-c2ccc(SC(F)(F)F)cc2)c(F)cc1Cl [F91, Methyl 3-chloro-5-fluoro-6-(4-((trifluoromethyl)thio)phenyl) picolinate] | 0 to 29

same assay, conditions: post-emergence, 336 h, AVEFA: wild oat (Avena fatua), 140 g ai/ha, 14 days after application, read-out: Visual Growth Reduction (%) 14 Days After Application, AVEFA

Row | Compound | pest or weed control at 140 g/ha [%]
5 | COC(=O)c1nc(-c2cc3c(cc2F)OC(F)(F)O3)c(F)cc1Cl [F173, Methyl 3-chloro-5-fluoro-6-(2,2,6-trifluorobenzo[d] [1,3]dioxol-5-yl)picolinate] | 75 to 84
6 | COC(=O)c1nc(-c2ccc(SC(F)(F)F)cc2)c(F)cc1Cl [F91, Methyl 3-chloro-5-fluoro-6-(4-((trifluoromethyl)thio)phenyl) picolinate] | 0 to 29

same assay, conditions: post-emergence, 336 h, CHEAL: lambsquarters (Chenopodium album), 140 g ai/ha, 14 days after application, read-out: Visual Growth Reduction (%) 14 Days After Application, CHEAL

Row | Compound | pest or weed control at 140 g/ha [%]
7 | COC(=O)c1nc(-c2cc3c(cc2F)OC(F)(F)O3)c(F)cc1Cl [F173, Methyl 3-chloro-5-fluoro-6-(2,2,6-trifluorobenzo[d] [1,3]dioxol-5-yl)picolinate] | 95 to 100
8 | COC(=O)c1nc(-c2ccc(SC(F)(F)F)cc2)c(F)cc1Cl [F91, Methyl 3-chloro-5-fluoro-6-(4-((trifluoromethyl)thio)phenyl) picolinate] | 0 to 29

same assay, conditions: post-emergence, 336 h, CIRAR: canada thistle (Cirsium arvense), 140 g ai/ha, 14 days after application, read-out: Visual Growth Reduction (%) 14 Days After Application, CIRAR

Row | Compound | pest or weed control at 140 g/ha [%]
9 | COC(=O)c1nc(-c2cc3c(cc2F)OC(F)(F)O3)c(F)cc1Cl [F173, Methyl 3-chloro-5-fluoro-6-(2,2,6-trifluorobenzo[d] [1,3]dioxol-5-yl)picolinate] | 85 to 94
10 | COC(=O)c1nc(-c2ccc(SC(F)(F)F)cc2)c(F)cc1Cl [F91, Methyl 3-chloro-5-fluoro-6-(4-((trifluoromethyl)thio)phenyl) picolinate] | 30 to 44

same assay, conditions: post-emergence, 336 h, CYPES: yellow nutsedge (Cyperus esculentus), 140 g ai/ha, 14 days after application, read-out: Visual Growth Reduction (%) 14 Days After Application, CYPES

Row | Compound | pest or weed control at 140 g/ha [%]
11 | COC(=O)c1nc(-c2cc3c(cc2F)OC(F)(F)O3)c(F)cc1Cl [F173, Methyl 3-chloro-5-fluoro-6-(2,2,6-trifluorobenzo[d] [1,3]dioxol-5-yl)picolinate] | 75 to 84
12 | COC(=O)c1nc(-c2ccc(SC(F)(F)F)cc2)c(F)cc1Cl [F91, Methyl 3-chloro-5-fluoro-6-(4-((trifluoromethyl)thio)phenyl) picolinate] | 0 to 29

same assay, conditions: post-emergence, 336 h, DIGSA: crabgrass (Digitaria sanguinalis), 140 g ai/ha, 14 days after application, read-out: Visual Growth Reduction (%) 14 Days After Application, DIGSA

Row | Compound | pest or weed control at 140 g/ha [%]
13 | COC(=O)c1nc(-c2cc3c(cc2F)OC(F)(F)O3)c(F)cc1Cl [F173, Methyl 3-chloro-5-fluoro-6-(2,2,6-trifluorobenzo[d] [1,3]dioxol-5-yl)picolinate] | 95 to 100
14 | COC(=O)c1nc(-c2ccc(SC(F)(F)F)cc2)c(F)cc1Cl [F91, Methyl 3-chloro-5-fluoro-6-(4-((trifluoromethyl)thio)phenyl) picolinate] | 0 to 29

same assay, conditions: post-emergence, 336 h, ECHCG: barnyardgrass (Echinochloa crus-galli), 140 g ai/ha, 14 days after application, read-out: Visual Growth Reduction (%) 14 Days After Application, ECHCG

Row | Compound | pest or weed control at 140 g/ha [%]
15 | COC(=O)c1nc(-c2cc3c(cc2F)OC(F)(F)O3)c(F)cc1Cl [F173, Methyl 3-chloro-5-fluoro-6-(2,2,6-trifluorobenzo[d] [1,3]dioxol-5-yl)picolinate] | 85 to 94
16 | COC(=O)c1nc(-c2ccc(SC(F)(F)F)cc2)c(F)cc1Cl [F91, Methyl 3-chloro-5-fluoro-6-(4-((trifluoromethyl)thio)phenyl) picolinate] | 0 to 29

same assay, conditions: post-emergence, 336 h, IPOHE: ivy-leaf morning glory (Ipomoea hederacea), 140 g ai/ha, 14 days after application, read-out: Visual Growth Reduction (%) 14 Days After Application, IPOHE

Row | Compound | pest or weed control at 140 g/ha [%]
17 | COC(=O)c1nc(-c2cc3c(cc2F)OC(F)(F)O3)c(F)cc1Cl [F173, Methyl 3-chloro-5-fluoro-6-(2,2,6-trifluorobenzo[d] [1,3]dioxol-5-yl)picolinate] | 95 to 100
18 | COC(=O)c1nc(-c2ccc(SC(F)(F)F)cc2)c(F)cc1Cl [F91, Methyl 3-chloro-5-fluoro-6-(4-((trifluoromethyl)thio)phenyl) picolinate] | 30 to 44

same assay, conditions: post-emergence, 336 h, KCHSC: kochia (Bassia scoparia), 140 g ai/ha, 14 days after application, read-out: Visual Growth Reduction (%) 14 Days After Application, KCHSC

Row | Compound | pest or weed control at 140 g/ha [%]
19 | COC(=O)c1nc(-c2cc3c(cc2F)OC(F)(F)O3)c(F)cc1Cl [F173, Methyl 3-chloro-5-fluoro-6-(2,2,6-trifluorobenzo[d] [1,3]dioxol-5-yl)picolinate] | 60 to 74
20 | COC(=O)c1nc(-c2ccc(SC(F)(F)F)cc2)c(F)cc1Cl [F91, Methyl 3-chloro-5-fluoro-6-(4-((trifluoromethyl)thio)phenyl) picolinate] | 0 to 29

same assay, conditions: post-emergence, 336 h, ORYSA: rice (Oryza sativa), 140 g ai/ha, 14 days after application, read-out: Visual Growth Reduction (%) 14 Days After Application, ORYSA

Row | Compound | pest or weed control at 140 g/ha [%]
21 | COC(=O)c1nc(-c2cc3c(cc2F)OC(F)(F)O3)c(F)cc1Cl [F173, Methyl 3-chloro-5-fluoro-6-(2,2,6-trifluorobenzo[d] [1,3]dioxol-5-yl)picolinate] | 0 to 29
22 | COC(=O)c1nc(-c2ccc(SC(F)(F)F)cc2)c(F)cc1Cl [F91, Methyl 3-chloro-5-fluoro-6-(4-((trifluoromethyl)thio)phenyl) picolinate] | 0 to 29

same assay, conditions: post-emergence, 336 h, SETFA: giant foxtail (Setaria faberi), 140 g ai/ha, 14 days after application, read-out: Visual Growth Reduction (%) 14 Days After Application, SETFA

Row | Compound | pest or weed control at 140 g/ha [%]
23 | COC(=O)c1nc(-c2cc3c(cc2F)OC(F)(F)O3)c(F)cc1Cl [F173, Methyl 3-chloro-5-fluoro-6-(2,2,6-trifluorobenzo[d] [1,3]dioxol-5-yl)picolinate] | 75 to 84
24 | COC(=O)c1nc(-c2ccc(SC(F)(F)F)cc2)c(F)cc1Cl [F91, Methyl 3-chloro-5-fluoro-6-(4-((trifluoromethyl)thio)phenyl) picolinate] | 0 to 29

same assay, conditions: post-emergence, 336 h, SORVU: grain sorghum (Sorghum vulgare), 140 g ai/ha, 14 days after application, read-out: Visual Growth Reduction (%) 14 Days After Application, SORVU

Row | Compound | pest or weed control at 140 g/ha [%]
25 | COC(=O)c1nc(-c2cc3c(cc2F)OC(F)(F)O3)c(F)cc1Cl [F173, Methyl 3-chloro-5-fluoro-6-(2,2,6-trifluorobenzo[d] [1,3]dioxol-5-yl)picolinate] | 95 to 100
26 | COC(=O)c1nc(-c2ccc(SC(F)(F)F)cc2)c(F)cc1Cl [F91, Methyl 3-chloro-5-fluoro-6-(4-((trifluoromethyl)thio)phenyl) picolinate] | 0 to 29

same assay, conditions: post-emergence, 336 h, STEME: common chickweed (Stellaria media), 140 g ai/ha, 14 days after application, read-out: Visual Growth Reduction (%) 14 Days After Application, STEME

Row | Compound | pest or weed control at 140 g/ha [%]
27 | COC(=O)c1nc(-c2cc3c(cc2F)OC(F)(F)O3)c(F)cc1Cl [F173, Methyl 3-chloro-5-fluoro-6-(2,2,6-trifluorobenzo[d] [1,3]dioxol-5-yl)picolinate] | 0 to 29
28 | COC(=O)c1nc(-c2ccc(SC(F)(F)F)cc2)c(F)cc1Cl [F91, Methyl 3-chloro-5-fluoro-6-(4-((trifluoromethyl)thio)phenyl) picolinate] | 0 to 29

same assay, conditions: post-emergence, 336 h, TRZAS: wheat, spring (Triticum aestivum), 140 g ai/ha, 14 days after application, read-out: Visual Growth Reduction (%) 14 Days After Application, TRZAS

Row | Compound | pest or weed control at 140 g/ha [%]
29 | COC(=O)c1nc(-c2cc3c(cc2F)OC(F)(F)O3)c(F)cc1Cl [F173, Methyl 3-chloro-5-fluoro-6-(2,2,6-trifluorobenzo[d] [1,3]dioxol-5-yl)picolinate] | 60 to 74
30 | COC(=O)c1nc(-c2ccc(SC(F)(F)F)cc2)c(F)cc1Cl [F91, Methyl 3-chloro-5-fluoro-6-(4-((trifluoromethyl)thio)phenyl) picolinate] | 0 to 29
